Laboratory results as given in ChEMBL document CHEMBL5236551, “Andrographolide and its derivatives: Current achievements and future perspectives” (Eur J Med Chem, 2021).

Columns and labels:
[1] = Antimigratory activity against human LX2 cells assessed as inhibition rate at 5 uM relative to control; type: functional; details: LX-2
[2] = Inhibition of TGF-beta1 induced mesenchymal transformation in human A549 cells assessed as inhibition rate at 1.25 uM relative to control; type: functional
[3] = Inhibition of NF-kappa-B signaling pathway in human HeLa cells assessed as decrease in phosphorylated NF-kappaB p65 level treated for 4 hrs by Western blot analysis; type: cell-based
Mus musculus [4] = test: Anti-inflammatory activity against dimethylbenzene-induced auricular edema Kunming mouse model assessed as inhibition of ear edema at 1.35 mmol/Kg, po administered once daily via gavage for 3 days relative to control; type: functional; details: 72 h, time 3 day
Rattus norvegicus [5] = test: Anti-inflammatory activity against egg albumin-induced paw edema in Sprague-Dawley rat assessed as inhibition of paw edema at 0.90 mmol/Kg, po preadministered once daily via gavage for 3 days followed by egg albumin addition measured at 120 min by plethysmometric analysis relative to control; type: functional; details: 72 h, at 0.9 mmol/kg, time 3 day
SW-620 = test: Cytotoxicity against human SW620 cells assessed as cell growth inhibition after 48 hrs by SRB assay; type: functional, cell-based; details: SW-620, 48 h
PC-3 = test: Cytotoxicity against human PC-3 cells assessed as cell growth inhibition after 48 hrs by SRB assay; type: functional, cell-based; details: PC-3, 48 h
OVCAR-8 = test: Cytotoxicity against human OVCAR-8 cells assessed as cell growth inhibition after 48 hrs by SRB assay; type: functional, cell-based; details: OVCAR-8, 48 h
NCI-H522 = test: Cytotoxicity against human NCI-H522 cells assessed as cell growth inhibition after 48 hrs by SRB assay; type: functional, cell-based; details: NCI-H522, 48 h
HT-29 = test: Cytotoxicity against human HT-29 cells assessed as cell growth inhibition after 48 hrs by SRB assay; type: functional, cell-based; details: HT-29, 48 h
DU-145 = test: Cytotoxicity against human DU-145 cells assessed as cell growth inhibition after 48 hrs by SRB assay; type: functional, cell-based; details: DU-145, 48 h
UACC-62 = test: Cytotoxicity against human UACC-62 cells assessed as cell growth inhibition after 48 hrs by SRB assay; type: functional, cell-based; details: UACC-62, 48 h
NCI/ADR-RES = test: Cytotoxicity against human MCF7/ADR cells assessed as cell growth inhibition after 48 hrs by SRB assay; type: functional, cell-based
MCF7 [6] = test: Cytotoxicity against human MCF7 cells assessed as cell growth inhibition after 48 hrs by SRB assay; type: functional, cell-based; details: MCF7, 48 h
Mus musculus [7] = test: Anti-inflammatory activity in BALB/c mouse model of colitis assessed as suppression of DSS-induced NF-kappa-B p65 expression in colon tissue at 200 mg/kg, IG for 8 days relative to control; type: functional; details: po, 192 h, time 8 day
[8] = Inhibition of TGF-beta1 induced mesenchymal transformation in human A549 cells assessed as inhibition rate at 0.63 uM relative to control; type: functional
[9] = Antimigratory activity against Ang II-induced human Cardiac fibroblast cells assessed as inhibition rate at 0.63 uM relative to control; type: functional
HCT-116 [10] = test: Antiproliferative activity against human HCT-116 cells assessed as cell growth inhibition measured after 24 hrs by MTT assay; type: functional
MCF7 [11] = test: Antiproliferative activity against human MCF7 cells assessed as cell growth inhibition measured after 24 hrs by MTT assay; type: functional, cell-based; details: MCF7, time 24 hrs
A549 = test: Antiproliferative activity against human A549 cells assessed as cell growth inhibition measured after 48 hrs by MTT assay; type: functional, cell-based; details: A549, 48 h
MGC-803 = test: Antiproliferative activity against human MGC-803 cells assessed as cell growth inhibition measured after 48 hrs by MTT assay; type: functional, cell-based; details: MGC-803, 48 h
NB-4 = test: Antiproliferative activity against human NB-4 cells assessed as cell growth inhibition measured after 48 hrs by MTT assay; type: functional, cell-based; details: NB-4, 48 h
HepG2 = test: Antiproliferative activity against human HepG2 cells assessed as cell growth inhibition measured after 48 hrs by MTT assay; type: functional, cell-based; details: HepG2, 48 h
[12] = Antiproliferative activity against human NTUB1 cells assessed as cell growth inhibition measured after 48 hrs by MTT assay; type: functional, cell-based; details: NTUB1, 48 h
T-24 = test: Antiproliferative activity against human T24 cells assessed as cell growth inhibition measured after 48 hrs by MTT assay; type: functional, cell-based; details: T-24, 48 h
J82 = test: Antiproliferative activity against human J82 cells assessed as cell growth inhibition measured after 48 hrs by MTT assay; type: functional, cell-based; details: J82, 48 h
MCF7 [13] = test: Antiproliferative activity against human MCF7 cells assessed as cell growth inhibition measured after 48 hrs by MTT assay; type: functional, cell-based; details: MCF7, 48 h
[14] = Antiproliferative activity against human HCT cell line assessed as cell growth inhibition measured after 48 hrs by MTT assay; type: functional, cell-based
P388 = test: Cytotoxicity against mouse P388 cells assessed as cell growth inhibition by SRB assay; type: functional; details: read-out: ED50 (the source's name)
MCF7 [15] = test: Cytotoxicity against human MCF7 cells assessed as cell growth inhibition by SRB assay; type: functional; details: read-out: ED50 (the source's name)
[16] = Cytotoxicity against human Lu1 cells assessed as cell growth inhibition by SRB assay; type: functional; details: read-out: ED50 (the source's name)
Col2 = test: Cytotoxicity against human Col2 cells assessed as cell growth inhibition by SRB assay; type: functional; details: read-out: ED50 (the source's name)
KB = test: Cytotoxicity against human KB cells assessed as cell growth inhibition by SRB assay; type: functional; details: read-out: ED50 (the source's name)
[17] = Cytotoxicity against rat ASK cells assessed as cell growth inhibition by SRB assay; type: functional; details: read-out: ED50 (the source's name)
HCT-116 [18] = test: Antiproliferative activity against human HCT-116 cells assessed as cell growth inhibition measured after 48 hrs by MTT assay; type: functional, cell-based; details: HCT-116, 48 h
MCF7 [19] = test: Antiproliferative activity against human MCF7 cells assessed as cell growth inhibition incubated for 72 hrs by CCK8 assay; type: functional, cell-based; details: MCF7, 72 h
HCT-116 [20] = test: Antiproliferative activity against human HCT-116 cells assessed as cell growth inhibition incubated for 72 hrs by CCK8 assay; type: functional, cell-based; details: HCT-116, 72 h
Rattus norvegicus [21] = test: Anti-inflammatory activity against egg white-induced paw edema in rat model assessed as detumescence rate measured after 6 hrs relative to control; type: functional
[22] = test system: Human immunodeficiency virus 1; test: Antiviral activity against HIV-1 infected in human C8166 cells; type: functional, organism-based; details: Human immunodeficiency virus 1, C8166

C=C1CCC2[C@](C)(C=O)c3nc(N)sc3C[C@@]2(C)[C@@H]1/C=C/C1=CCOC1=O (stereo not given in full)
inhibition at 5 µM [1]: > 20%
inhibition at 1.25 µM [2]: > 65%

C=C1CC[C@@H]2[C@](C)(CO)[C@H](O)CC[C@@]2(C)[C@@H]1C/C=C1/C(=O)OC[C@@H]1Oc1ccc([N+](=O)[O-])cc1OC
EC50 [3]: 2000 nM

C=C1CC[C@@H]2[C@](C)(COC(=O)c3cccnc3)[C@H](OC(=O)c3cccnc3)CC[C@@]2(C)[C@@H]1/C=C/C1=CC(=C/c2ccc(Cl)cc2)/OC1=O
inhibition in vivo at 1350 µmol/kg (Mus musculus [4]): 79.4%
inhibition in vivo at 900 µmol/kg (Rattus norvegicus [5]): 50.4%

C=C1CCC2[C@](C)(CO)[C@H](O)CC[C@@]2(C)[C@@H]1C/C=C/c1ccc(F)cc1 (stereo not given in full)
IC50 (SW-620): 20000 nM
IC50 (PC-3): 14000 nM
IC50 (OVCAR-8): 2000 nM
IC50 (NCI-H522): 3000 nM
IC50 (HT-29): 16000 nM
IC50 (DU-145): 7000 nM
IC50 (UACC-62): 17000 nM
IC50 (NCI/ADR-RES): 4000 nM
IC50 (MCF7 [6]): 14000 nM

C=C1CCC2[C@](C)(COC(C)=O)[C@H](OC(C)=O)CC[C@@]2(C)[C@@H]1C/C=C1/C(=O)OC[C@H]1OC(C)=O (stereo not given in full)
inhibition in vivo at 200 mg/kg (Mus musculus [7]): 50.4%

C[C@@]12CCC3[C@](C)(CO)[C@H](O)CC[C@@]3(C)[C@@H]1CC(C1=C/C(=C\c3ccc(Cl)cc3)OC1=O)O2 (stereo not given in full)
inhibition at 5 µM [1]: > 60%
inhibition at 0.63 µM [8]: > 70%
inhibition at 0.63 µM [9]: > 65%

C=C1CCC2[C@]3(C)COC(c4ccccc4Br)O[C@@H]3CC[C@@]2(C)[C@@H]1C/C=C1/C(=O)OC[C@H]1O (stereo not given in full)
GI50 (HCT-116 [10]): 4900 nM
GI50 (MCF7 [11]): 5300 nM

CC1=C2[C@H]3O[C@]34CC[C@@H]3[C@](C)(COC(=O)c5ccccc5)[C@H](OC(=O)c5ccccc5)CC[C@@]3(C)[C@@H]4[C@H]3O[C@@]23OC1=O
IC50 (A549): 2030 nM
IC50 (MGC-803): 1850 nM
IC50 (NB-4): 870 nM
IC50 (HepG2): 2310 nM
IC50 [12]: 550 nM
IC50 (T-24): 1040 nM
IC50 (J82): 2040 nM
IC50 (MCF7 [13]): 1210 nM
IC50 [14]: 940 nM

C=C1CC[C@@H]2[C@](C)(CO[Si](C)(C)C(C)(C)C)[C@H](OC(C)=O)CC[C@@]2(C)[C@@H]1CC(OC(C)=O)C1=CCOC1=O (stereo not given in full)
EC50 (P388): 550 nM
EC50 (MCF7 [15]): 2130 nM
EC50 [16]: 2090 nM
EC50 (Col2): 2000 nM
EC50 (KB): 2350 nM
EC50 [17]: 1980 nM

C=C1CC[C@@H]2[C@](C)(COC(C)=O)[C@H](OC(C)=O)CC[C@@]2(C)[C@@H]1CC(Nc1ccccc1SC)C1=CCOC1=O (stereo not given in full)
IC50 (HCT-116 [18]): 5800 nM

C=C1CC[C@H]2[C@@](C)(C=CC(=O)[C@@]2(C)COC(=O)c2ccccc2)[C@@H]1C/C=C1/C(=O)OC[C@H]1O
IC50 (MCF7 [19]): 7800 nM
IC50 (HCT-116 [20]): 2490 nM

C=C1CCC2[C@](C)(CO)[C@H](O)CC[C@@]2(C)[C@@H]1CCC1=CCOC1=O (stereo not given in full)
inhibition (INH) (Rattus norvegicus [21]): 87.53%

C=C1CCC2[C@](C)(COC(=O)Cc3cccc4ccccc34)[C@H](OC(=O)c3cccnc3)CC[C@@]2(C)[C@@H]1/C=C/C1=CCOC1=O (stereo not given in full)
IC50 [22]: 9690 nM
